Experiments:
E. coli = assay: Antimicrobic susceptibility testing (AST) by digital microscopy: count sum, area sum, area/count ratio; type: cell-based
Method: FIGS. 7-23 illustrate various features and steps of optimized AST method 101 (FIG. 19). In some versions, system 1 as discussed above may be used to facilitate some or all of the features provided in optimized AST method 101. Optimized AST method 101 includes performing an image analysis cycle 102 repetitively until a MIC is determined. FIG. 8 provides several exemplary digital microscopy parameters for use in optimized AST method 101. Test well 20 is embodied by a “384” style test well, having a clear viewing bottom. The volume of inoculum in test well 20 may be set to 20 microliters to reduce the amount of materials such as bulk diluents required by AST method 101 and/or minimize light artifacts and provide sampling of a consistent number of microbes from the 1:250 dilution of the 0.5 MacFarland inoculum. […] the volume of inoculum in test well 20 generally increases the light artifacts. In some instances, capturing a single vertical plane 103 at 20× objective whereby AST camera 35 is set at 0.33 microns/pixel may be sufficient for sampling the inoculum and ensuring that each individual microbe is recognizable. However, these parameters are configurable and may change as desired by the user or the underlying needs of the system. Capturing three focal sites spaced about 5 microns apart within single vertical plane 103 may also provide a sufficient number of microbes in the sample to count for use in optimized AST method 101. These three focal sites are labeled site 105, site 107, and site 109 in FIG. 8. In an exemplary version of optimized AST method 101, each focal site is approximately 700×700 microns within single vertical plane 103, rather than capturing three sites in three different vertical planes. AST camera 35, optics system 9, and computer 49 are configured to capture an image of each focal site in consecutive time periods, manipulate each of these images, and thereafter use the data derived from these manipulated images to make a MIC determination. Image analysis cycle 102 is generally depicted in FIG. 9 and comprises an image capture step 111, an image enhancement step 113, an image segmentation step 115, and an object counting step 117. Optimized AST method 101 includes performing image analysis cycle 102 repetitively until a MIC is determined. Image analysis cycle 102 utilizes one or more instances of computer 49 and the various elements thereof to perform image capture step 111, image enhancement step 113, image segmentation step 115, and object counting step 117, as well as any sub steps provided therein. Once image segmentation step 115 generates segmented image 143, image segmentation step 115 proceeds to object counting step 117. In object counting step 117, the background and foreground pixels are considered to derive information regarding the number of microbes in the sample, the area occupied by the microbes in the sample, and the ratio between the number of microbes and the area occupied by the microbes. In some versions of object counting step 117, the actual microbe count is compared with an average microbe count to determine if an error occurred within the image capture process. The comparison may incorporate a standard deviation with the average microbe count to generalize the microbe comparison. Object counting step 117 may be configured to derive information regarding the ratio between the total area occupied by all of the microbes in the image and the total count of microbes. This information may be useful by determining whether the microbes are undergoing elongation over time. Elongation is a precursor to death and indicates the concentration of the antimicrobic dilution is negatively affecting the microbes. More specifically, elongation may occur when microbes such as bacteria encounter an effective amount of antibiotic drugs. Once object counting step 117 derives the desired information from segmented image 143, image analysis cycle 102 terminates. […]

[1] = test system: gram negative bacteria carrying the Klebsiella pneumonia carbapenemase (KPC) resistance mechanism; assay: Growth pattern combined with fluorogenic pH test (MEU) to detect resistance and predict MIC; type: cell-based; conditions: predicted if pH changes in Meropenem well within 1-2 hours and the growth pattern is identified
From the text: The growth pattern information derived from optics system 9 may also be combined with a fluorogenic test measuring a change in pH to detect some mechanisms of resistance in the microbes being tested. As an example, one of the fluorogenic test substrates could be an antimicrobial agent. Degradation of the antimicrobial agent leads to a change in the pH of the medium within two hours after inoculation, and the pH change can be detected with an indicator that changes fluoresces with changes in pH. Combining the information on the growth patterns (cell count, area, and area/count), as described above, along with an indication that the antimicrobial agent has degraded provides a way to quickly ascertain if the microbe is resistant and helps to determine the MIC of the organism.
For example, the antibiotic Meropenem is enzymatically degraded by microbes such as gram negative bacteria carrying the Klebsiella pneumonia carbapenemase (KPC) resistance mechanism. If Meropenem is degraded, the medium drops in pH. The fluorogenic pH indicator, MEU (methyllumbeliferone) will change (decrease) in fluorescence with that change. This change occurs within 1 to 2 hours. […]

With CO/N=C(\C(=O)N[C@@H]1C(=O)N2C(C(=O)O)=C(CSc3nc(=O)c(=O)[nH]n3C)CS[C@H]12)c1csc(N)n1 [Cax] the “effect on bacteria count” value (E. coli; E. coli sample, Cax 0.12 dilution compared with Growth sample (FIG. 20A)) was “no effect”, the MIC (E. coli; E. coli sample, from count sum data (FIG. 20A)) was 0.25 µg/mL and the “area/count ratio (elongation spike)” value (E. coli; E. coli, Cax 0.25 and higher dilutions (FIG. 20C), No Growth line approximately 4.0) was “above 8.0”. The “minimum amount of antibiotic to have the desired effect on the area occupied by the bacteria” value (E. coli; E. coli, from area sum data (FIG. 20B)) was 0.25 and the MIC (E. coli; E. coli, from area/count ratio data, elongation spike (FIG. 20C)) was 0.25 µg/mL.
CO/N=C(\C(=O)N[C@@H]1C(=O)N2C(C(=O)[O-])=C(C[N+]3(C)CCCC3)CS[C@H]12)c1csc(N)n1 [Cefepime] showed an MIC (E. coli; E. coli sample, bacteria count data at around the 200-minute mark (FIG. 21)) of 0.06 µg/mL and an MIC (E. coli; E. coli sample, ratio data at around the 120-minute mark (FIG. 22)) of 0.06 µg/mL.
For C[C@@H](O)[C@H]1C(=O)N2C(C(=O)O)=C(S[C@@H]3CN[C@H](C(=O)N(C)C)C3)[C@H](C)[C@H]12 [Meropenem], the MIC [1] was “greater than 1 mcg/ml”.
CC1(C)S[C@@H]2[C@H](NC(=O)[C@H](N)c3ccccc3)C(=O)N2[C@H]1C(=O)O [ampicillin] was tested, and the “growth morphology after exposure” value (E. coli; E. coli exposed to a dilution of ampicillin (FIG. 17) vs free from ampicillin (FIG. 18)) was “abnormal growth in the form of elongation”.
